# Test results from PMC10174255, “Drug repurposing approach against chikungunya virus: an in vitro and in silico study” (Frontiers in Cellular and Infection Microbiology, 2023).
# Key:
# CHIKV [1] = assay: Viral entry assay; conditions: 1.56 µM
# CHIKV [2] = assay: Viral RNA copy number by quantitative RT-PCR; conditions: cotreatment
# CHIKV [3] = assay: Viral attachment assay; conditions: 1.56 µM and 0.78 µM, at 4°C and 37°C
# MTT cytotoxicity assay = conditions: African green monkey
# Vero CCL-81 cells = assay: MTT cytotoxicity assay; conditions: Vero CCL-81, ≥90% cell viability
# CHIKV [4] = assay: Antiviral assay (pre-, co-, posttreatment) with FFU readout; conditions: for mean log10 viral titer/ml: VC 8.194; for anti-CHIKV activity in primary screening: highest nontoxic concentration
structure (smiles),measurement,setting,value
C[C@H](N[C@@H](CCc1ccccc1)C(=O)O)C(=O)N1CCC[C@H]1C(=O)O [Enalaprilat],effect on virus titer in virus entry assay,CHIKV [1],affects the virus titer
same,effect on viral RNA titer,CHIKV [2],No significant reduction
same,effect on virus attachment,CHIKV [3],shown to influence virus attachment
same,CC50,MTT cytotoxicity assay,83 ± 18.7 µM
same,The maximum nontoxic concentration used for primary screening of drugs against CHIKV,Vero CCL-81 cells,1.56 µM
same,anti chikungunya activity,"CHIKV [4]; Vero CCL-81, any treatment condition",exhibit anti chikungunya activity
same,Selectivity Index (SI),CHIKV [4]; cotreatment,167.42
same,mean log10 viral titer/ml,"CHIKV [4]; cotreatment, 0.78 µM",7.297 log10 FFU/ml
same,mean log10 viral titer/ml,"CHIKV [4]; cotreatment, 1.56 µM",7.052 log10 FFU/ml
same,IC50,"CHIKV [4]; cotreatment, FFU, Vero CCL-81",0.496 µM
same,anti-CHIKV activity in primary screening,"CHIKV [4]; cotreatment, FFU",effective
same,anti-CHIKV activity in primary screening,"CHIKV [4]; posttreatment, FFU",did not affect
